Entries after “also recorded” stand apart in the source; their conditions may differ.
Legend:
CD83 and CD11c = settings: responders of Alefacept therapy; cited from earlier work
IL-10 = experiment: TaqMan RT-PCR gene expression in skin biopsies, clinical psoriasis study; format: in vivo, human; settings: lesional psoriatic skin biopsies of patients, week 2 vs pre-treatment (wk0), oral dosing
Method: (§1) A multicenter, randomized, open-label, multiple oral dose outpatient study was done in patients with moderate to severe chronic plaque psoriasis. Patients received Compound 5021 mg or 35 mg orally twice daily (BID), 35 mg or 70 mg orally once per day (QD). Patients remained on study medication for a period of 12 weeks.
(§2) Lesional and nonlesional skin biopsies were collected from adults with chronic plaque-type psoriasis before and after treatment with Compound 50. The biopsies were processed using the QIAGEN RNeasy kit. Using a rotor-stator tissue homogenizer (saw-tooth rotor; PowerGen 700), frozen specimens were homogenized in buffer (RLT; QIAGEN) for 30-60 s and spun in a microcentrifuge for 3 min at room temperature to pellet debris. The supernatant was loaded onto a QIAGEN minicolumn and spun for 15s at high speed. A series of washes and DNase digestion was followed by final elution of RNA from the column. RNA was quantitated by UV spectrophotometry. The primers and probes for the TaqMan RT-PCR assays for IL-12/23 p40, IL-23 p19, and IL-10 were generated using the Primer Express algorithm version 1.0 from published sequences (National Center for Biotechnology Information). All primers and probes were synthesized by Applied Biosystems-PerkinElmer. RT-PCR reactions were performed according to the manufacturer's directions (EZ PCR Core Reagents; TaqMan and Applied Biosystems). The human acidic ribosomal protein gene (hARP), a housekeeping gene, was used to normalize each sample and each gene.
(§3) Gene expression levels at week 2 (wk2) were compared to pre-treatment levels in lesional psoriatic skin (wk0). […] In the same biopsy samples, an increase in mRNA IL-10, an anti-inflammatory cytokine, was observed (FIG. 1C).

IL-23 p19 = experiment: as above; format: in vivo, human; settings: lesional psoriatic skin biopsies of patients, week 2 vs pre-treatment (wk0), oral dosing, normalized to hARP
Method: as §1, §2, §3

IL-12/23 p40 = experiment: as above; format: in vivo, human; settings: lesional psoriatic skin biopsies of patients, week 2 vs pre-treatment (wk0), oral dosing, normalized to hARP
Method: as §1, §2, §3

[1] = API-excipient compatibility, 1 month at 40° C. and 60° C.; format: physicochemical; settings: for % Deg. w/Main peak: 1 month 40° C.
Method: For the pre-formulation work Compound 50 was mixed with varying ratios of excipients commonly encountered in topical formulations.
The Compound 50 Pre-Formulation Studies began with the addition of each individual excipient to 500 mg of the Active Pharmaceutical Ingredient (API). Table I below explains the detail ratio between each excipient and API used for this study.
The samples, once prepared in scintillation vials, were kept at 40° C. and 60° C. for over one month. The samples were analyzed by the method (not validated) developed by the analytical support group.
The results in Tables III-V were analyzed with respect to Compound 50 standard to calculate % recovery of API in the presence of each excipient. […] Similar results in table V for samples 5-60° C., 6-60° C., 7-60° C., 8-60° C., 10-60° C., 17-60° C., and 18-60° C. were obtained which needs to be further analyzed.

CD3+ cells = experiment: Immunohistochemistry cell counts in skin biopsies, clinical psoriasis study; format: in vivo, human; settings: week 12, patients receiving 70 mg once a day
Method: as §1
(§4) Tissue sections of skin biopsies were stained with hematoxylin (Fisher) and eosin (Shandon, Pittsburgh) and purified mouse anti-human mAbs to K16 (Sigma), CD3 (Becton Dickinson), CD11c (BD Pharmingen). Biotin-labeled horse anti-mouse antibody (Vector Laboratories) was amplified with avidin-biotin complex (Vector Laboratories) and developed with chromogen 3-amino-9-ethylcarbazole (Sigma Aldrich). Epidermal thickness measures were computed by using National Institutes of Health software (NIH IMAGE 6.1), and positive cells were counted manually by using computer-assisted image analysis.

[2] = system: CD11c+ cells (dendritic cells); experiment: as above; format: in vivo, human
Method: as §1, §4

[3] = Water solubility (statement); format: physicochemical
[4] = week 12, patients receiving 70 mg once a day

Row | Molecule | CD83 and CD11c immunostaining (CD83 and CD11c) | IL-10 mRNA (IL-10) | IL-23 p19 gene expression (IL-23 p19) | IL-12/23 p40 gene expression (IL-12/23 p40) | % Deg. w/Main peak ([1]; with Methylparaben, 1st impurity peak RRT 0.52) | w/Main Peak ([1]; with Methylparaben, 1 month 60° C., impurity peak 0.51) | w/Main Peak ([1]; with PEG-300, 1 month 60° C., impurity peak 0.60) | w/Main Peak ([1]; with PEG-400, 1 month 60° C., impurity peak 0.60) | w/Main Peak ([1]; with Polysorbate 80, 1 month 60° C., impurity peak 0.60) | w/Main Peak ([1]; with Propylene Glycol, 1 month 60° C., impurity peak 0.60) | % Deg. w/Main peak ([1]; with Propylparaben, 1st impurity peak RRT 0.78) | w/Main Peak ([1]; with Propylparaben, 1 month 60° C., impurity peak 0.78) | w/Main Peak ([1]; with Sorbitan Monooleate, 1 month 60° C., impurity peak 0.59) | CD3+ cells in dermis (CD3DER) (CD3+ cells) | CD3+ cells in epidermis (CD3EPI) (CD3+ cells) | CD11c+ cells in epidermis count ([2]; all nonresponders, week 12) | decrease in CD11c+ cells in epidermis ([2]; all responder patients (histological improvement at week 12)) | CD11c+ cells in dermis (CD11DER) [2, 4] | CD11c+ cells in epidermis (CD11EPI) [2, 4] | water solubility [3]
1 | Alefacept | decreases |  |  |  |  |  |  |  |  |  |  |  |  |  |  |  |  |  |  | 
2 | Cc1cccc(/C=N/Nc2cc(N3CCOCC3)nc(OCCc3ccccn3)n2)c1 [Compound 50, N-(3-Methyl-benzylidene)-N′-[6-morpholin-4-yl-2-(2-pyridin-2-yl-ethoxy)-pyrimidin-4-yl]-hydrazine] |  | increase | reduced; also recorded: decrease | reduced; also recorded: decrease | 0.34% | 13.75% | 0.51% | 1.87% | 1.30% | 0.11% | 8.96% | 6.37% | 8.25% | significant but less pronounced decreases | significant but less pronounced decreases | no significant reduction | ~100% | significant but less pronounced decreases | marked decrease | not water soluble

— patent US20110098267A1, “TOPICAL FORMULATIONS FOR THE TREATMENT OF PSORIASIS” (Synta Pharmaceuticals Corporation, priority 2008, published 2011)
